Results on one molecule are retold here after the NIST ThermoML archive (doi:10.1021/je800742d).

The conditions of this data set: Crystal; visual observation.

± gives the expanded uncertainty stated by the source.

Turning to `CN1CCN(c2cc3c(cc2F)c(=O)c(C(=O)O)cn3-c2ccc(F)cc2)CC1` [difloxacin], the Normal melting temperature is 278.00 ± 0.5 °C.
